PubChem BioAssay (NCI)
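Values below derive from 48-hour exposures of cells grown in 96-well plates, with endpoints linearly interpolated between the two concentrations bracketing the appropriate inhibition level. GI50 is the concentration that inhibits growth by half. TGI: concentration producing complete growth inhibition.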

Experiments:
Assay in all cases: NCI tumour cell line growth inhibition, 48 h
ACHN renal = test system: ACHN renal
IGROV1 ovarian = test system: IGROV1 ovarian
K-562 leukemia = test system: K-562 leukemia
LOX IMVI melanoma = test system: LOX IMVI melanoma
NCI-H23 lung = test system: NCI-H23 lung
OVCAR-8 ovarian = test system: OVCAR-8 ovarian
SK-MEL-2 melanoma = test system: SK-MEL-2 melanoma
SK-MEL-28 melanoma = test system: SK-MEL-28 melanoma
SK-OV-3 ovarian = test system: SK-OV-3 ovarian
UO-31 renal = test system: UO-31 renal

SMILES	GI50 (ACHN renal)	TGI (ACHN renal)	GI50 (IGROV1 ovarian)	TGI (IGROV1 ovarian)	GI50 (K-562 leukemia)	TGI (K-562 leukemia)	GI50 (LOX IMVI melanoma)	TGI (LOX IMVI melanoma)	GI50 (NCI-H23 lung)	TGI (NCI-H23 lung)	GI50 (OVCAR-8 ovarian)	TGI (OVCAR-8 ovarian)	GI50 (SK-MEL-2 melanoma)	TGI (SK-MEL-2 melanoma)	GI50 (SK-MEL-28 melanoma)	TGI (SK-MEL-28 melanoma)	GI50 (SK-OV-3 ovarian)	TGI (SK-OV-3 ovarian)	GI50 (UO-31 renal)	TGI (UO-31 renal)
Nc1ccccc1-c1ccc([N+](=O)[O-])cc1	4.99 µM	> 100 µM	19 µM	> 100 µM	1.32 µM	> 100 µM	37.4 µM	> 100 µM	26.6 µM	> 100 µM	63.4 µM	> 100 µM	> 100 µM	> 100 µM	83.5 µM	> 100 µM	68.3 µM	> 100 µM	5.07 µM	> 100 µM
CCN(CC)CCCn1cnc2ncccc2c1=O		> 100 µM		> 100 µM		> 100 µM		> 100 µM		> 100 µM		> 100 µM		> 100 µM		> 100 µM		> 100 µM		> 100 µM
Cc1ccc2c(c1)c1nc3cc(C)c(C)cc3nc1n2CCN(C)C	0.821 µM	5.92 µM	1.93 µM	4.77 µM	2.6 µM	50.3 µM	1.45 µM	4.45 µM	2.04 µM	5.9 µM	1.73 µM	8.29 µM	2.15 µM	4.87 µM	2.55 µM	5.46 µM	2.61 µM	8.52 µM	1.07 µM	3.48 µM
O=S(=O)(Cc1ccc(Cl)cc1Cl)c1ccc(Cl)cc1	1.04 µM	> 100 µM	0.445 µM	> 21.9 µM	0.303 µM	> 100 µM	0.587 µM	> 100 µM	0.878 µM	> 100 µM	1.22 µM	> 100 µM	0.326 µM		1.97 µM	> 100 µM	1.47 µM	> 57.7 µM	1.03 µM	> 53.3 µM
CC1(Cl)CC2OC3(Br)C=CC(C)(O)C2(CC1Br)C3(C)C (centres undefined)		> 100 µM		> 100 µM		> 100 µM		> 100 µM		> 100 µM		> 100 µM		> 100 µM		> 100 µM		> 100 µM		> 100 µM
Nc1cc(C(=O)O)[nH]c(=O)n1		> 100 µM		> 100 µM		> 100 µM		> 100 µM		> 100 µM		> 100 µM		> 100 µM		> 100 µM		> 100 µM		> 100 µM
Cc1ccccc1C1=[N+]([O-])c2ccccc2C1=O		30.6 µM		34.9 µM		45.7 µM		35 µM		35.4 µM		30.3 µM		21.2 µM		35.8 µM		> 100 µM		36.6 µM
Cc1ccc(NC(=O)Cc2ccc(/C=C/C(=O)c3ncc[nH]3)cc2)cc1	6.51 µM	21.4 µM	6.47 µM	> 25 µM			1.29 µM	6.76 µM	5.85 µM	> 25 µM	7.24 µM	> 25 µM	18.1 µM	> 25 µM	11.5 µM	> 25 µM	12.8 µM	> 25 µM	3.01 µM	14.2 µM
COC(c1cccc(C(O)(C(F)(F)F)C(F)(F)F)c1)(C(F)(F)F)C(F)(F)F		29.2 µM		35.3 µM				34.1 µM		35.3 µM		45.4 µM		33.7 µM				34.4 µM		34.2 µM
CCC1C(=O)OCc2c1cc1n(c2=O)Cc2cc3ccccc3nc2-1 (centres undefined)		> 100 µM		> 100 µM		> 100 µM		> 51.2 µM		10.6 µM		> 70.9 µM		> 100 µM		> 100 µM		> 100 µM		11.7 µM
Clc1ccc(/C=C/c2cc(N3CCOCC3)c3cc(Cl)c(Cl)cc3n2)cc1	> 100 µM	> 100 µM	> 100 µM	> 100 µM	> 100 µM	> 100 µM	> 100 µM	> 100 µM	> 100 µM	> 100 µM	> 100 µM	> 100 µM	> 100 µM	> 100 µM	> 100 µM	> 100 µM	> 100 µM	> 100 µM	0.71 µM	> 45.7 µM
O=C(Nc1ccccc1)c1nn(-c2cc(S(=O)(=O)O)c([N+](=O)[O-])cc2Cl)[n+](-c2cc(S(=O)(=O)[O-])c([N+](=O)[O-])cc2Cl)n1		> 100 µM		> 100 µM		> 100 µM		> 100 µM		> 100 µM				> 100 µM		> 100 µM		> 100 µM		> 100 µM
O=C1CC(c2cccc(O)c2)C2(C(=O)NC(=S)NC2=O)C(c2cccc(O)c2)C1 (centres undefined)	> 100 µM	> 100 µM	> 100 µM	> 100 µM	> 100 µM	> 100 µM	> 100 µM	> 100 µM	> 100 µM	> 100 µM	> 100 µM	> 100 µM	> 100 µM	> 100 µM	> 100 µM	> 100 µM	> 100 µM	> 100 µM	> 100 µM	> 100 µM
N#Cc1ncc(-c2ccc(C(F)(F)F)cc2)c(NCc2cc(C(F)(F)F)cc(C(F)(F)F)c2)n1	3.62 µM	> 100 µM	5.95 µM	> 100 µM	3.74 µM	> 100 µM	3.02 µM	16.5 µM	3.22 µM	23.8 µM	3.69 µM	> 100 µM	2.89 µM	7.15 µM	5.17 µM	> 100 µM	5.23 µM	47.3 µM	2.89 µM	54.4 µM
CN(Cc1ccc(Cl)cc1)c1ccc(CO)c(Cl)c1	5.83 µM	23.6 µM	0.365 µM	2.24 µM	3.79 µM	> 65.7 µM	4.48 µM	16.7 µM	5.98 µM	23 µM	7.05 µM	27.4 µM	4.06 µM	16.3 µM	12.3 µM	25.1 µM	5.18 µM	16.9 µM	3.23 µM	14.5 µM
